Measurements taken from patent US20140303092A1 (CHIMERIX, INC., priority 2011, published 2014).

Test: Study HDP-CDV-201: safety and tolerability (adverse events, laboratory abnormalities, discontinuations)
Format: in vivo, human (adult allogeneic HSCT recipients)
Protocol: Clinical Studies of HDP-CDV were performed and described in detail in the following Examples. For example, HDP-CDV-201 is a placebo-controlled, dose-escalating trial in HSCT CMV (R+) recipients, evaluating the ability of HDP-CDV to prevent or control CMV infection was carried out. Five cohorts were established in which participants or subjects received either placebo or the HDP-CDV orally, in doses ranging from 40 mg weekly (QW) to 200 mg twice weekly (BIW). Subjects who were post-HSCT were enrolled at the time of engraftment and randomized to HDP-CDV or placebo (3 to 1 ratio) and received blinded therapy until approximately 100 day post-transplantation. HDP-CDV doses were 40 mg QW, 100 mg QW, 200 mg QW, 200 mg BIW and 100 mg BIW. Escalation to the next dose was decided by the data monitoring committee after review of the safety data from the previous Cohort. Subjects who developed CMV disease or CMV infection requiring pre-emptive therapy with local standard of care were discontinued from blinded therapy and followed for 4 weeks. Subjects who completed treatment with blinded therapy were followed for 8 weeks post-therapy.
Data from Study HDP-CDV-201 also provided characterization of the safety and tolerability profile of HDP-CDV when administered for the prevention or control of CMV infection in high risk (R^+) post-HSCT adult subjects.
The Safety population (SAFETY) included all randomized subjects who took at least one dose of study treatment. This population was used to summarize safety outcomes based on the treatment actually received, in cases where a subject was treated contrary to the randomization schedule.
The safety and tolerability profile of HDP-CDV, including subject demographics and Baseline characteristics; the AE profile; and laboratory abnormalities of interest were analyzed in the cohorts followed in this investigation.
Subjects completing the treatment period received a full course of study medication; those completing the entire study attended visits through 8 weeks of follow up. Subjects who discontinued treatment may have done so for protocol specified reasons (e.g. development of clinically significant CMV infection requiring preemptive treatment with excluded anti-CMV medications) or for other reasons (e.g., withdrawal, adverse events, loss to follow-up). The disposition of subjects in Study HDP-CDV-201 during the double-blind, placebo-controlled treatment period (through Week 11) is listed by dosing Cohort in TABLE 23.
Adverse events were examined by severity to ensure that all safety signals were identified in this study population. Because of the frequency of events in HSCT recipients, particular attention was given to evaluation of Grade 3 […], 4 (severe), and 5 (fatal) adverse events.
Only those preferred terms for which at least one Grade 3 or higher event was experienced in any treatment group are listed. Cytomegalovirus-related AEs are excluded from this analysis.
HDP-CDV is a lipid conjugate of CDV. Because CDV is known to have adverse effects on renal function and bone marrow, decreased GFR and persistent neutropenia were identified as AEs of special interest. Key renal and hematological (TABLE 30) laboratory parameters were measured and listed below by Study HDP-CDV-201 treatment groups. TABLE 30 includes abnormal levels of serum creatinine, neutrophils, platelets, WBCs, and hemoglobin and includes data at Screening and during the treatment period.
A common metric for unit based dosing of medications is by weight (mg/kg). When the distribution of weights was examined for all subjects participating in the study, the median was 78 kg and the lower 25th percentile weight was approximately 65 kg, which translates to a cut-off of ˜3 mg/kg for a 200 mg total weekly dose. Based upon this approach, a cut-off of 3 mg/kg was used to assess the frequency of diarrhea and associated GI AEs reported for the subjects in Cohorts 3 or 4a (TABLE 40).

Compound: CCCCCCCCCCCCCCCCOCCCOP(=O)(O)COC(CO)Cn1ccc(N)nc1=O (stereo not drawn) [HDP-CDV]
- Grade of hepatobiliary AE acute liver injury, subject 3025 (Cohort 3): 1
- Grade of hepatobiliary AE gallbladder sludge, subject 3044 (Cohort 3): 2
- Grade of hepatobiliary AE hyperbilirubenemia, subject 3030 (Cohort 3): 2
- Grade of hepatobiliary AE hyperbilirubinemia, subject 3009 (Cohort 3): 1
- Grade of hepatobiliary AE hyperbilirubinemia, subject 3044 (Cohort 3): 4
- Grade of hepatobiliary AE jaundiced, subject 3030 (Cohort 3): 2
- Outcome of hepatobiliary AE acute liver injury, subject 3007 (Cohort 3): not recovered/not
- Outcome of hepatobiliary AE acute liver injury, subject 3025 (Cohort 3): recovered/resolved
- Outcome of hepatobiliary AE gallbladder sludge, subject 3044 (Cohort 3): not recovered/not
- Outcome of hepatobiliary AE hyperbilirubenemia, subject 3030 (Cohort 3): not recovered/not
- Outcome of hepatobiliary AE hyperbilirubinemia, subject 3009 (Cohort 3): recovered/resolved
- Outcome of hepatobiliary AE hyperbilirubinemia, subject 3044 (Cohort 3): not recovered/not
- Outcome of hepatobiliary AE jaundiced, subject 3030 (Cohort 3): not recovered/not
- Relationship of hepatobiliary AE acute liver injury, subject 3007 (Cohort 3): not related
- Relationship of hepatobiliary AE acute liver injury, subject 3025 (Cohort 3): not related
- Relationship of hepatobiliary AE gallbladder sludge, subject 3044 (Cohort 3): not related
- Relationship of hepatobiliary AE hyperbilirubenemia, subject 3030 (Cohort 3): not related
- Relationship of hepatobiliary AE hyperbilirubinemia, subject 3009 (Cohort 3): not related
- Relationship of hepatobiliary AE hyperbilirubinemia, subject 3044 (Cohort 3): not related
- Relationship of hepatobiliary AE jaundiced, subject 3030 (Cohort 3): not related
- subjects discontinued due to neutropenia (Cohort 3): 2 subject(s)
- ALT (Screening) >3 × ULN-5 × ULN, subjects (Cohort 3, 200 mg QW): 0
- ALT (Screening) >5 × ULN-10 × ULN, subjects (Cohort 3, 200 mg QW): 0
- ALT (Screening) >10 × ULN-20 × ULN, subjects (Cohort 3, 200 mg QW): 0
- ALT (Screening) >20 × ULN, subjects (Cohort 3, 200 mg QW): 0
- ALT (any time during therapy) >3 × ULN-5 × ULN, subjects (Cohort 3, 200 mg QW): 4 (10.5%)
- ALT (any time during therapy) >5 × ULN-10 × ULN, subjects (Cohort 3, 200 mg QW): 5 (13.2%)
- ALT (any time during therapy) >10 × ULN-20 × ULN, subjects (Cohort 3, 200 mg QW): 0
- ALT (any time during therapy) >20 × ULN, subjects (Cohort 3, 200 mg QW): 1 (2.6%)
- AST (Screening) >3 × ULN-5 × ULN, subjects (Cohort 3, 200 mg QW): 0
- AST (Screening) >5 × ULN-10 × ULN, subjects (Cohort 3, 200 mg QW): 0
- AST (Screening) >10 × ULN-20 × ULN, subjects (Cohort 3, 200 mg QW): 0
- AST (Screening) >20 × ULN, subjects (Cohort 3, 200 mg QW): 0
- AST (any time during therapy) >3 × ULN-5 × ULN, subjects (Cohort 3, 200 mg QW): 5 (13.2%)
- AST (any time during therapy) >5 × ULN-10 × ULN, subjects (Cohort 3, 200 mg QW): 1 (2.6%)
- AST (any time during therapy) >10 × ULN-20 × ULN, subjects (Cohort 3, 200 mg QW): 0
- AST (any time during therapy) >20 × ULN, subjects (Cohort 3, 200 mg QW): 0
- Alkaline Phosphatase (Screening) >2.5-5.0 × ULN, subjects (Cohort 3, 200 mg QW): 0
- Alkaline Phosphatase (Screening) >5.0-20.0 × ULN, subjects (Cohort 3, 200 mg QW): 0
- Alkaline Phosphatase (Screening) >20.0 × ULN, subjects (Cohort 3, 200 mg QW): 0
- Alkaline Phosphatase (Screening) >ULN-[…] ULN, subjects (Cohort 3, 200 mg QW): 5 (13.5%)
- Alkaline Phosphatase (any time during therapy) >2.5-5.0 × ULN, subjects (Cohort 3, 200 mg QW): 0
- Alkaline Phosphatase (any time during therapy) >5.0-20.0 × ULN, subjects (Cohort 3, 200 mg QW): 0
- Alkaline Phosphatase (any time during therapy) >20.0 × ULN, subjects (Cohort 3, 200 mg QW): 0
- Alkaline Phosphatase (any time during therapy) >ULN-[…] ULN, subjects (Cohort 3, 200 mg QW): 14 (36.8%)
- GI AE Leading to Study Drug Discontinuation: Abdominal pain, subjects (Cohort 3, 200 mg QW): 0
- GI AE Leading to Study Drug Discontinuation: Diarrhoea, subjects (Cohort 3, 200 mg QW): 1 (2.6%)
- GI AE Leading to Study Drug Discontinuation: Dyspepsia, subjects (Cohort 3, 200 mg QW): 2 (5.1%)
- GI AE Leading to Study Drug Discontinuation: Nausea, subjects (Cohort 3, 200 mg QW): 0
- GI AE Leading to Study Drug Discontinuation: Vomiting, subjects (Cohort 3, 200 mg QW): 0
- GI AEs Leading to Study Drug Discontinuation: Total subjects discontinued (Cohort 3, 200 mg QW): 3 (7.7%)
- Gastrointestinal AE Abdominal discomfort, subjects (Cohort 3, 200 mg QW): 1 (2.6%)
- Gastrointestinal AE Abdominal distention, subjects (Cohort 3, 200 mg QW): 0
- Gastrointestinal AE Abdominal pain upper, subjects (Cohort 3, 200 mg QW): 1 (2.6%)
- Gastrointestinal AE Abdominal pain, subjects (Cohort 3, 200 mg QW): 5 (12.8%)
- Gastrointestinal AE Constipation, subjects (Cohort 3, 200 mg QW): 2 (5.1%)
- Gastrointestinal AE Diarrhoea, subjects (Cohort 3, 200 mg QW): 13 (33.3%)
- Gastrointestinal AE Diverticulum intestinal haemorragic, subjects (Cohort 3, 200 mg QW): 1 (2.6%)
- Gastrointestinal AE Dyspepsia, subjects (Cohort 3, 200 mg QW): 4 (10.3%)
- Gastrointestinal AE Dysphagia, subjects (Cohort 3, 200 mg QW): 0
- Gastrointestinal AE Epigastric discomfort, subjects (Cohort 3, 200 mg QW): 0
- Gastrointestinal AE Flatulence, subjects (Cohort 3, 200 mg QW): 1 (2.6%)
- Gastrointestinal AE GERD, subjects (Cohort 3, 200 mg QW): 2 (5.1%)
- Gastrointestinal AE Gastritis, subjects (Cohort 3, 200 mg QW): 0
- Gastrointestinal AE Haematochezia, subjects (Cohort 3, 200 mg QW): 0
- Gastrointestinal AE Haemorroids, subjects (Cohort 3, 200 mg QW): 0
- Gastrointestinal AE Large intestinal ulcer, subjects (Cohort 3, 200 mg QW): 0
- Gastrointestinal AE Nausea, subjects (Cohort 3, 200 mg QW): 11 (28.2%)
- Gastrointestinal AE Odynophagia, subjects (Cohort 3, 200 mg QW): 0
- Gastrointestinal AE Oesophagitis, subjects (Cohort 3, 200 mg QW): 0
- Gastrointestinal AE Retching, subjects (Cohort 3, 200 mg QW): 0
- Gastrointestinal AE Vomiting, subjects (Cohort 3, 200 mg QW): 6 (15.4%)
- Hepatobiliary clinical AE Cholelithiasis, subjects (Cohort 3, 200 mg QW): 0
- Hepatobiliary clinical AE Hepatomegaly, subjects (Cohort 3, 200 mg QW): 0
- Hepatobiliary clinical AE Hyperbilirubinaemia, subjects (Cohort 3, 200 mg QW): 3 (7.7%)
- Hepatobiliary clinical AE Jaundice, subjects (Cohort 3, 200 mg QW): 1 (2.6%)
- Hepatobiliary clinical AE Liver injury, subjects (Cohort 3, 200 mg QW): 2 (5.1%)
- Intensity of Gastrointestinal AEs, Grade 1, subjects (Cohort 3, 200 mg QW): 12 (30.8%)
- Intensity of Gastrointestinal AEs, Grade 2, subjects (Cohort 3, 200 mg QW): 10 (25.6%)
- Intensity of Gastrointestinal AEs, Grade 3, subjects (Cohort 3, 200 mg QW): 2 (5.1%)
- Intensity of Gastrointestinal AEs, Grade 4, subjects (Cohort 3, 200 mg QW): 2 (5.1%)
- Intensity of Gastrointestinal AEs, Grade 5, subjects (Cohort 3, 200 mg QW): 0
- Proportion of Subjects with Stage 3 or 4 Gut GVHD (Cohort 3, 200 mg QW): 0%
- Serum ALT level, Median fold increase from Baseline at Follow-up Week 1 (Cohort 3, 200 mg QW): 2.52 fold
- Serum ALT level, Median fold increase from Baseline at Follow-up Week 4 (Cohort 3, 200 mg QW): 1.06 fold
- Serum ALT level, Peak Median fold increase from Baseline (Cohort 3, 200 mg QW): 3.13 fold
- Subjects completed study (Cohort 3, 200 mg QW): 14 (35.9%) n (%)
- TEAE Abdominal pain Grade 2, subjects (Cohort 3, 200 mg QW): 1 (2.6%)
- TEAE Abdominal pain Grade 3, subjects (Cohort 3, 200 mg QW): 1 (2.6%)
- TEAE Abdominal pain Grade 4, subjects (Cohort 3, 200 mg QW): 0
- TEAE Abdominal pain Grade 5, subjects (Cohort 3, 200 mg QW): 0
- TEAE Abdominal pain Overall Frequency, subjects (Cohort 3, 200 mg QW): 5 (12.8%)
- TEAE Diarrhea Grade 2, subjects (Cohort 3, 200 mg QW): 5 (12.8%)
- TEAE Diarrhea Grade 3, subjects (Cohort 3, 200 mg QW): 2 (5.1%)
- TEAE Diarrhea Grade 4, subjects (Cohort 3, 200 mg QW): 0
- TEAE Diarrhea Grade 5, subjects (Cohort 3, 200 mg QW): 0
- TEAE Diarrhea Overall Frequency, subjects (Cohort 3, 200 mg QW): 13 (33.3%)
- TEAE Hypokalaemia Grade 2, subjects (Cohort 3, 200 mg QW): 2 (5.1%)
- TEAE Hypokalaemia Grade 3, subjects (Cohort 3, 200 mg QW): 0
- TEAE Hypokalaemia Grade 4, subjects (Cohort 3, 200 mg QW): 0
- TEAE Hypokalaemia Grade 5, subjects (Cohort 3, 200 mg QW): 0
- TEAE Hypokalaemia, subjects (Cohort 3, 200 mg QW): 5 (12.8%)
- TEAE Nausea Grade 2, subjects (Cohort 3, 200 mg QW): 4 (10.3%)
- TEAE Nausea Grade 3, subjects (Cohort 3, 200 mg QW): 1 (2.6%)
- TEAE Nausea Grade 4, subjects (Cohort 3, 200 mg QW): 0
- TEAE Nausea Grade 5, subjects (Cohort 3, 200 mg QW): 0
- TEAE Nausea Overall Frequency, subjects (Cohort 3, 200 mg QW): 11 (28.2%)
- TEAE Vomiting Grade 2, subjects (Cohort 3, 200 mg QW): 1 (2.6%)
- TEAE Vomiting Grade 3, subjects (Cohort 3, 200 mg QW): 1 (2.6%)
- TEAE Vomiting Grade 4, subjects (Cohort 3, 200 mg QW): 0
- TEAE Vomiting Grade 5, subjects (Cohort 3, 200 mg QW): 0
